Data taken from US11994513B2, “Diagnostic and prognostic methods for estrogen-induced cancers” (The University of Newcastle, priority 2018, dated 2024).

Key:
Ishikawa organoids = test: 3D organoid formation assay: colony size and proliferation (CellTiter-Glo 3D); type: cell-based, human
Method: The human endometrial adenocarcinoma cell line Ishikawa (Sigma #99040201) was cultured in MEM (HyClone) medium supplemented with 5% heat-inactivated FBS (Bovogen Biologicals), 2 mmol/L L-glutamine (HyClone), and antibiotics (50 U/mL penicillin, 50 mg/L streptomycin; Gibco) in a humidified atmosphere at 37° C. containing 5% CO2. Cell line authentication was done by short tandem repeat (STR) DNA profiling method and mycoplasma contamination in cells was routinely conducted using MycoAlert™ Plus Mycoplasma detection kit (Lonza). 5,000 Ishikawa cells/well were seeded in triplicate in 100 μL medium onto 96-well tissue culture plates coated with a thin layer of reduced growth factor basement membrane extract (Cultrex® RGF BME: Trevigen) and were allowed to form organoids. After 24 hours, the organoids were subjected to desired hormonal treatments: 10 nmol/L estrogen ((β-Estradiol, Sigma #E8875) and 100 nmol/L progesterone (Medroxyprogesterone 17-acetate, Sigma #M1629). The culture medium containing desired hormone concentration was changed on every 48 hours. On day 7, colony size was measured and images were photographed using JuLI™ Stage Real-Time Cell History Recorder (NanoEnTek) in an incubator at 37° C. humidified with 5% CO2. 72 hours post-treatment, cells were incubated with CellTiter-Glo® 3D Reagent (Promega) for 30 minutes at room temperature and luminescence signal was recorded using the FLUOstar OPTIMA (BMG Labtech). Ishikawa 3D organoids were fixed in 4% paraformaldehyde (Electron Microscopy Sciences, ProSciTech) for 20 minutes and processed for immunofluorescence, as described previously (Sahoo et al, Oncotarget, 2017, 8:71400-17).

ALPPL2 mRNA expression = test: Quantitative real-time PCR of ALPPL2 mRNA in hormone-treated Ishikawa organoids; type: cell-based, human; conditions: FIG. 2C
Method: (§1) 5,000 Ishikawa cells/well were seeded in triplicate in 100 μL medium onto 96-well tissue culture plates coated with a thin layer of reduced growth factor basement membrane extract (Cultrex® RGF BME: Trevigen) and were allowed to form organoids. After 24 hours, the organoids were subjected to desired hormonal treatments: 10 nmol/L estrogen ((β-Estradiol, Sigma #E8875) and 100 nmol/L progesterone (Medroxyprogesterone 17-acetate, Sigma #M1629). The culture medium containing desired hormone concentration was changed on every 48 hours. On day 7, colony size was measured and images were photographed using JuLI™ Stage Real-Time Cell History Recorder (NanoEnTek) in an incubator at 37° C. humidified with 5% CO2. 72 hours post-treatment, cells were incubated with CellTiter-Glo® 3D Reagent (Promega) for 30 minutes at room temperature and luminescence signal was recorded using the FLUOstar OPTIMA (BMG Labtech). […]
Total RNA was isolated from estrogen or progesterone treated mouse uterus and Ishikawa cells using RNeasy Mini kit (Qiagen) following manufacturer's instructions. […] Quantitative real-time PCR (Q-PCR) was performed using RT^2 SYBR Green ROX qPCR Mastermix (Qiagen) on a 7900 HT FAST Thermocycler (Applied Biosystems) through a pre-incubation step, and 40 amplification cycles (including denaturation, annealing and extension segments). […]

ALPPL2 protein = test: Western blot of ALPPL2 protein in hormone-treated Ishikawa cells and organoids; type: cell-based, human; conditions: Ishikawa cells and organoids treated with E2 and/or P4, FIGS. 2D and 2E
Method: as §1
Human endometrial cancer samples, mouse uterine tissue, and Ishikawa cells were lysed in ice-cold RIPA (radioimmunoprecipitation assay) buffer (50 mmol/L Tris-HCl pH 7.5, 150 mmol/L NaCl, 1% NP-40, 0.5% Sodium deoxycholate, 0.1% SDS) containing protease and phosphatase inhibitors (Sigma). […] The membrane was washed again in TBS-T, developed using a chemiluminescent substrate (Millipore) for detection of HRP and the protein bands were detected by chemiluminescence (Fujifilm LAS-4000). […]

mice uteri = test: Hormone pellet treatment of ovariectomized mice: uterine histology and ALPPL2 immunohistochemistry; type: in vivo, C57BL/6 mice

With β-Estradiol [E2] the “proliferation of Ishikawa organoids” value (Ishikawa organoids; E2 10 nmol/L, 3D culture, 72 hours post-treatment, FIG. 2B) was “increased”, the “size of Ishikawa organoids” value (Ishikawa organoids; E2 10 nmol/L, 3D culture, day 7, FIG. 2A) was “increased” and the “ALPPL2 mRNA expression” value (ALPPL2 mRNA expression; E2 treated organoids, 10 nmol/L) was “significantly upregulated”. For the same compound, the “ALPPL2 protein expression (western blot, total cell lysate)” value (ALPPL2 protein) was “Overexpression of ALPPL2”, the “ALPPL2 expression in uterus (immunohistochemical analysis)” value (mice uteri; E2 pellet for 3 months, FIG. 3A) was “increase in ALPPL2 expression” and the “endometrial hyperplasia (histological analysis)” value (mice uteri; E2 pellet for 3 months, compared to E2 and P4 treated uteri, data not shown) was “increased endometrial hyperplasia”.
`CC(=O)[C@H]1CC[C@H]2[C@@H]3CCC4=CC(=O)CC[C@]4(C)[C@H]3CC[C@]12C` [P4, progesterone] was tested, and the “mitogenic action of E2 on Ishikawa organoids (size and proliferation)” value (Ishikawa organoids; P4 100 nmol/L with E2 10 nmol/L, FIGS. 2A and 2B) was “counterbalanced”, the “effect on E2-induced ALPPL2 mRNA upregulation” value (ALPPL2 mRNA expression; P4 100 nmol/L with E2 10 nmol/L) was “inhibited this effect” and the “effect on E2-induced ALPPL2 expression in uterus (immunohistochemical analysis)” value (mice uteri; E2 and P4 pellets for 3 months, FIG. 3A) was “attenuated the effect of E2”.
